According to patent US20100204138A1, “USE OF TRP6-T[…] D-LEU6-[…] […] AGENTS” (priority 2007, published 2010):

Key:
[1] = tested on: Primary Human endothelial cells (HUVEC); assay: Endothelial cell migration assay; type: cell-based; settings: 10 micrograms per ml, 22 hours
Description: Thereafter, designated concentration of testing peptides—10 micrograms per ml—was added in duplicate wells.

[2] = tested on: hepatitis B virus (HBV) ayw strain; assay: HBV experimental assay in HepG2-2.2.15 cells (TaqMan PCR of secreted HBV DNA); type: cell-based; settings: 10 micrograms per ml, six days
[3] = tested on: A549 cells; assay: Apoptosis prevention assay (C2 ceramide, Annexin-5); type: cell-based, human; settings: 10 micrograms per ml, 30 min pretreatment
[4] = tested on: Ovalbumin-restimulated spleen cells of Balb/c mice; assay: Th1/Th2 cytokine profiling assay; type: cell-based, mouse; settings: 10 micrograms per ml; murine spleen cells; Ovalbumin restimulation, 72 hours
[5] = tested on: HUVEC; assay: Endothelial tube formation assay; type: cell-based, human; settings: 10 micrograms per ml, 20 hours
From the text: Positive control was vehicle only.

[6] = tested on: HCMV strain AD169; assay: HCMV plaque formation assay in MRC-5 cells; type: cell-based; settings: 10 micrograms per ml, 7-10 days
[7] = tested on: Streptococcus pneumoniae; assay: Streptococcus pneumoniae growth assay; type: cell-based; settings: 10 micrograms per ml; 5×10^5 CFU/mL

Row | Substance | inhibition of the migration of human endothelial cells [1] [%] | inhibition of HBV replication as compared to the virus control infection [2] [%] | reduction of the ceramide-induced apoptosis on human lung cells [3] | change of the production of IL-5 [4] | production of IFN-γ, suppressed by [4] [%] | production of IL-2, induced by [4] [%] | production of IL-4, induced/increased by [4] [%] | production of TNF-alpha, induced by [4] | inhibition of the tube formation of human endothelial cells [5] [%] | inhibition of HCMV plaque formation as compared to the virus control [6] | inhibition of the growth of Streptococcus pneumoniae [7] [%] | production of IFN-γ, induced by [4] [%]
1 | Pyr-His-Trp-Ser-Tyr-D-His(Bzl)-D-Leu-Arg-Pro-NHEt [Peptide 2] | 8 | 61.6 | did not reduce | did not significantly change | 30.8 | 55.8 | 135.7 | did not significantly change | 4 | did not inhibit | 100 | –
2 | Pyr-His-Trp-Ser-Tyr-Trp-Leu-Arg-Pro-Gly-NH2 (HWSYWLRPG; N-terminal pyroglutamate; C-terminal amide; printed: His-Trp-Ser-Tyr-Trp-Leu-Arg-Pro-Gly-) [Peptide 1, LHRH family peptide, commercially available] | 3 | 23 | 22.65% | did not significantly change | – | 47.1 | 70.6 | 45.1% | 15 | did not inhibit | 100 | 40.2
